Data taken from article PMC3767463 (Journal of the American Chemical Society, 2013).

B1: cyclotide Momordica cochinchinensis trypsin inhibitor-I (natural protein)
chain: cyclo(SGSDGGVCPKILQRCRRDSDCPGACICRGNGYCG)
modifications: disulfide (positions not given here)

Legend:
[1] = tested on: DU145 cells; assay: MTT cell viability; assay type: cell-based, human; conditions: DU145 (non-functional p53), 0–100 μM, 48 h
[2] = tested on: PC3 cells; assay: MTT cell viability; assay type: cell-based, human; conditions: PC3 (non-functional p53), 0–100 μM, 48 h
[3] = tested on: LNCaP cells; assay: Propidium iodide flow cytometric cell cycle assay; assay type: cell-based, human; conditions: LNCaP cells treated 24 h; propidium iodide flow cytometry
[4] = tested on: HBL100 cells; assay: MTT cell viability; conditions: HBL100 normal breast epithelial cells, 48 h, triplicate
[5] = tested on: p53 level; assay type: cell-based, human; conditions: LNCaP; 50 μM MCo-PMI, 8–48 h; western blot
[6] = tested on: HdmX level; assay: Western blot of LNCaP cell extracts; assay type: cell-based, human; conditions: 48 h, cyclotides 50 μM
[7] = tested on: caspase-3/7; assay: Caspase-3/7 assay in LNCaP cells; assay type: cell-based, human; conditions: LNCaP cells treated 30 h
[8] = mice, MCo-PMI 40 mg/kg i.v. daily
[9] = in vitro; conditions: human, human serum
[10] = molecular target: serum proteins (human)

| Molecule | Effect on cell viability [1] | Effect on cell viability [2] | Effect on cell cycle progression [3] | EC50, cytotoxicity to non-cancerous cells [4] | Time of peak p53 level post-treatment [5] | Effect on intracellular HdmX level [6] | Caspase-3/7 activation [7] | Association constant rate to human serum proteins | Dissociation constant rate from human serum proteins | Body weight throughout treatment [8] | Organs and tissues at necropsy [8] | half-life [9] | percent bound [10] |
| --- | --- | --- | --- | --- | --- | --- | --- | --- | --- | --- | --- | --- | --- |
| COc1ccc(C2=N[C@@H](c3ccc(Cl)cc3)[C@@H](c3ccc(Cl)cc3)N2C(=O)N2CCNC(=O)C2)c(OC(C)C)c1 [Nutlin-3, reference compound] | unaffected | unaffected | depression of the S-phase fraction | 33 ± 5 µM |  |  |  |  |  |  |  |  |  |
| CC[C@H](C)[C@@H]1NC(=O)[C@@H]2CSSC[C@@H]3NC(=O)[C@H](C(C)C)NC(=O)CNC(=O)CNC(=O)[C@H](C)NC(=O)[C@H](CO)NC(=O)[C@H](CC(C)C)NC(=O)[C@H](CC(C)C)NC(=O)[C@H](CC(N)=O)NC(=O)[C@H](Cc4c[nH]c5ccccc45)NC(=O)[C@H](Cc4ccc(O)cc4)NC(=O)[C@H](CCC(=O)O)NC(=O)[C@H](C)NC(=O)[C@H](Cc4ccccc4)NC(=O)[C@H](CO)NC(=O)[C@H]([C@@H](C)O)NC(=O)[C@@H]4CCCN4C(=O)[C@H](C)NC(=O)[C@H](CCCCN)NC(=O)[C@H](CO)NC(=O)[C@H](C)NC(=O)CNC(=O)[C@H](CO)NC(=O)CNC(=O)[C@H](CO)NC(=O)CNC(=O)[C@@H]4CSSC[C@H](NC(=O)[C@H](CC(=O)O)NC(=O)[C@H](CO)NC(=O)[C@H](CC(=O)O)NC(=O)[C@H](CCCNC(=N)N)NC(=O)[C@H](CCCNC(=N)N)NC(=O)[C@H](CSSC[C@H](NC1=O)C(=O)N[C@@H](CCCNC(=N)N)C(=O)NCC(=O)N[C@@H](CC(N)=O)C(=O)NCC(=O)N[C@@H](Cc1ccc(O)cc1)C(=O)N4)NC(=O)[C@H](CCCNC(=N)N)NC(=O)[C@H](CCC(N)=O)NC(=O)[C@H](CC(C)C)NC(=O)[C@H]([C@@H](C)CC)NC(=O)[C@H](CCCCN)NC(=O)[C@@H]1CCCN1C3=O)C(=O)N1CCC[C@H]1C(=O)NCC(=O)N[C@@H](C)C(=O)N2 [MCo-PMI] | unaffected | unaffected | depression of the S-phase fraction |  | 36 to 48 h | downregulated | dose-dependent caspase-3 activation | 2400 M⁻¹ s⁻¹ | 0.022 s⁻¹ | maintained healthy weight | no gross abnormalities | 30 ± 4 h |  |
| B1 |  |  |  |  |  |  |  |  |  |  |  |  | 80% |
